Measurements as given in ChEMBL document CHEMBL1150028, “-((Tetronoyl)oxy)- and -((tetramoyl)oxy)methyl ketone inhibitors of the interleukin-1 converting enzyme (ICE)” (Bioorg Med Chem Lett, 1997).

Assays:
Caspase-1 (Homo sapiens) = target: T1, Caspase-1 (Homo sapiens) (UniProt P29466); assay: Inhibitory activity against IL-1 beta converting enzyme was determined
T1 sequence (whole entry): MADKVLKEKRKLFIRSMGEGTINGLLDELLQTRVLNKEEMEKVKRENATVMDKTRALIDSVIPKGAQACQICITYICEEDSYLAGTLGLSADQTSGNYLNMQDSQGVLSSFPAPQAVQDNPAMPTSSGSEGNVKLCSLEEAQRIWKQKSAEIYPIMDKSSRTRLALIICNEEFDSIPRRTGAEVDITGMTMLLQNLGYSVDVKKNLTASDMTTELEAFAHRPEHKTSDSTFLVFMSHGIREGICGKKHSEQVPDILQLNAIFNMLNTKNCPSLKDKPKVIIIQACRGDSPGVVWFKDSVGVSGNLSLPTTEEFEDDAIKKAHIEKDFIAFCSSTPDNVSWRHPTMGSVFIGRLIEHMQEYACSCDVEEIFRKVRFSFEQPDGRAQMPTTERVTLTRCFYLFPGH

[1] = Stability of compound was determined by its half life period; assay type: physicochemical

Compound	K obs / 1 (Caspase-1 (Homo sapiens))	half-life [1]
CC(C)[C@H](NC(=O)OCc1ccccc1)C(=O)N[C@@H](CC(=O)O)C(=O)COC1=C(c2ccccc2)C(=O)OC1	27900 M⁻¹ s⁻¹	–
Cc1ccc(C2=C(OCC(=O)[C@H](CC(=O)O)NC(=O)OCc3ccccc3)COC2=O)cc1	4500 M⁻¹ s⁻¹	–
O=C(O)C[C@H](NC(=O)OCc1ccccc1)C(=O)COC1=C(c2ccccc2)C(=O)CC1	3070 M⁻¹ s⁻¹	3.9 h
O=C(O)C[C@H](NC(=O)OCc1ccccc1)C(=O)COC(=O)c1c(Cl)cccc1Cl	7100 M⁻¹ s⁻¹	–
CC(C)[C@H](NC(=O)OCc1ccccc1)C(=O)N[C@@H](CC(=O)O)C(=O)COC(=O)c1c(Cl)cccc1Cl	41000 M⁻¹ s⁻¹	–
COc1ccc(C2=C(OCC(=O)[C@H](CC(=O)O)NC(=O)OCc3ccccc3)COC2=O)cc1	4000 M⁻¹ s⁻¹	–
O=C(O)C[C@H](NC(=O)OCc1ccccc1)C(=O)COC1=C(c2ccccc2)C(=O)OC1	5700 M⁻¹ s⁻¹	0.86 h

Now from value to molecule:

K obs / 1 (Caspase-1 (Homo sapiens))	half-life [1]	Compound
4100 M⁻¹ s⁻¹	–	O=C(O)C[C@H](NC(=O)OCc1ccccc1)C(=O)COC1=C(c2ccc(Cl)cc2)C(=O)OC1
640 M⁻¹ s⁻¹	–	O=C(O)C[C@H](NC(=O)OCc1ccccc1)C(=O)COC1=C(c2ccc(Cl)c(Cl)c2)C(=O)OC1
2850 M⁻¹ s⁻¹	9.8 h	O=C(O)C[C@H](NC(=O)OCc1ccccc1)C(=O)COC1=C(Cc2ccccc2)C(=O)OC1
8500 M⁻¹ s⁻¹	95 h	CC(C)[C@H](NC(=O)OCc1ccccc1)C(=O)N[C@@H](CC(=O)O)C(=O)COC1=C(c2ccccc2)C(=O)NC1
–	20 h	CC(C)[C@H](NC(=O)OCc1ccccc1)C(=O)N[C@@H](C)C(=O)N[C@@H](CC(=O)O)C(=O)COC1=C(Cc2ccccc2)C(=O)OC1
< 25 M⁻¹ s⁻¹	–	O=C(O)C[C@H](NC(=O)OCc1ccccc1)C(=O)COC1=C(Cl)C(=O)OC1
21200 M⁻¹ s⁻¹	–	CC(C)[C@H](NC(=O)OCc1ccccc1)C(=O)N[C@@H](CC(=O)O)C(=O)COC1=C(Cc2ccccc2)C(=O)OC1
188 M⁻¹ s⁻¹	–	O=C(O)C[C@H](NC(=O)OCc1ccccc1)C(=O)COC1=CC(=O)OC1
260 M⁻¹ s⁻¹	–	CC1(C)OC(=O)C(c2ccccc2)=C1OCC(=O)[C@H](CC(=O)O)NC(=O)OCc1ccccc1
